Experimental data taken from EP0022634A1, “Acylated indole derivatives, processes for their preparation and pharmaceutical compositions and drugs comprising them” (TEIJIN LIMITED, priority 1979, dated 1981).
Converted amounts (≈) assume the structure as drawn. Like-named read-outs stand apart in the source and are kept apart here.

Columns and labels:
platelet aggregation [1] = assay: in vitro platelet aggregation inhibiting activity (sodium arachidonate as aggregating agent); assay type: cell-based; settings: guinea pigs PRP, final concentration 0.1 millimole, minimum final concentration whose inhibiting rate exceeded 50 %
Method: The platelet aggregation inhibiting activities in vitro of test drugs including the acylated indole derivatives of this invention were assayed using guinea pigs PRP.
As an aggregating agent, sodium arachidonate having a final concentration of 0.1 millimole was used.
The citrated blood was centrifuged at 1000 rpm for 10 minutes at room temperature, and the supernatant liquid (PRP) was separated.
The resulting PRP was stored at room temperature, and used as early as possible. PRP stored for more than 4 hours was not used.
A compound having a free carboxylic acid as a residue, such as Indomethacin and Ibprofen, was dissolved in O.lM NaHC03 to provide a sodium salt solution having a concentration of 10 mg/ml. The solution was similarly diluted with physiological saline to prepare a solution of a test drug.
The solution was diluted with physiological saline to form a 1mM solution which was used in the test.
50 µℓ of physiological saline and 50 µℓ of the aggregating agent solution were added to 400 µℓ of PRP which had been warmed in a cuvette at 37°C in an aggregometer to aggregate the platelet. The aggregation curve was recorded for 3 minutes by an aggregometer (a product of Bryston Company). The maximum degree of aggregation in this platelet aggregation was defined as the maximum degree of aggregation in the blank.
Then, 50 µℓ of a 1mM solution of sodium arachidonate was added, and the platelet aggregation curve was recorded in the same way as in (1) above. From the curve, the maximum degree of aggregation was calculated, and the inhibiting rate was calculated in accordance with the following equation. Maximum degree of aggregation Inhibiting 100 - in the Ibprofen-added system 100 rate (%) Maximum degree of aggregation in the blank
If these inhibiting rates are not attained, the concentration of the solution of sodium arachidonate is not suitable, and therefore, its concentration should be re-adjusted, and the test shall be performed again.
50 µℓ of the test compound solution was added to 400 µℓ of PRP, and the mixture was pre-incubated in the same way as in(2) above. Then, 50 µℓ of the solution of sodium arachidonate having its concentration adjusted in (2) was added, and the aggregation curve was recorded for 3 minutes. The maximum degree of aggregation of platelet within this period was measured, and the rate of inhibition was calculated from the following equation. […] Maximum degree of aggregation Inhibiting _ 100 - in the drug-added system x 100 rate (%) Maximum degree of aggregation in the blank
For details of the in vitro platelet aggregation inhibiting test, see H. M. Davis, J. Phyllis, K. Paul and W. Terry: Thromb. […] Haemos.

platelet aggregation [2] = assay: extra vivo platelet aggregation inhibiting activity after oral administration, sodium arachidonate as aggregating agent; assay type: in vivo, guinea pigs; settings: Cavia porcellus, 0.03 mM sodium arachidonate; for inhibition at 10 mg/kg: oral dosage 10 mg/kg; for inhibition at 1 mg/kg: oral dosage 1 mg/kg
Method: (§1) The platelet aggregation inhibiting activities extra vivo of drugs sampled at random were examined using guinea pigs.
(§2) The drugs were used dissolved in propylene glycol to a concentration of 1 mg/ml (when the dosage was 1 mg/kg), 10 mg/ml (when the dosage was 10 mg/kg), and 30 mg/ml (when the dosage was 30 mg/kg). The drugs were administered orally to male Hartley guinea pigs (three in a group) having a body weight of 300 to 350 g. Propylene glycol was administered to a control group.
(§3) One hour, or 4 hours after the administration, citrated blood was taken out from the subject by cardiac puncture.
(§4) The guinea pigs were caused to fast overnight before use.
(§5) The inhibiting rate of the test drugs was measured as follows: • 450 µℓ of PRP was put into a cuvette of an aggregometer, and then 50 µℓ of the aggregating agent was added. The aggregation curve was recorded for 3 minutes, and the maximum degree of aggregation was measured. As a blank, the maximum degree of aggregation of PRP of the group of guinea pigs to which propylene glycol had been administered was measured. The rate of inhibition was calculated from the following equation. [formula]
(§6) As the aggregating agent, 0.03 mM (final concentration sodium arachidonate and 5 µg/ml (final concentration) collagen floating solution were used.
For details of the extra vivo platelet aggregation inhibiting test, see Davis. H. M., Phyllis, J., Paul, K and Terry, W.: Thromb. […] Haemos.

platelet aggregation [3] = assay: extra vivo platelet aggregation inhibiting activity after oral administration, collagen as aggregating agent; assay type: in vivo, guinea pigs; settings: Cavia porcellus
Method: The collagent floating solution made by Hormone Company of west Germany was diluted with physiological saline to a concentration of 100 µg/ml for use in the test.
as §1, §2, §3, §4, §5, §6
For details of the extra vivo platelet aggregation inhibiting test, see Davis. H. M., Phyllis, J., Paul, K and Terry, W.: Thromb. Res. 11, 217-226 (1977) and Anderson R. E. and Foulks J. G.: Thromb. Haemos. 36, 343-359 (1976).

[4] = Cavia porcellus, Platelet, read-out: IC50
[5] = blood taken 1 hour after administration, read-out: Rate of inhibition of platelet aggregation, Sodium arachidonate, After 1 hour
[6] = blood taken 4 hours after administration, read-out: Rate of inhibition of platelet aggregation, Sodium arachidonate, After 4 hours
[7] = po, 1 h, read-out: Rate of inhibition of platelet aggregation, Collagen, After 1 hour
[8] = po, 4 h, read-out: Rate of inhibition of platelet aggregation, Collagen, After 4 hours

| Structure (SMILES) | IC50 (platelet aggregation [1]; [4]) [µg/mL] | inhibition at 10 mg/kg (platelet aggregation [2]; [5]) [%] | inhibition at 10 mg/kg (platelet aggregation [2]; [6]) [%] | inhibition at 10 mg/kg (platelet aggregation [3]; [7]) [%] | inhibition at 10 mg/kg (platelet aggregation [3]; [8]) [%] | other results |
| --- | --- | --- | --- | --- | --- | --- |
| Cc1c(C(=O)c2ccccc2)c2ccccc2n1C(C)C(=O)O (stereo not shown) [Comparison 1, reference compound] | 50 (≈ 163 µM) | – | – | – | – | – |
| COCCC(C)n1c(C)c(C(=O)c2ccccc2)c2ccccc21 (stereo not shown) [(306), 3-Benzoyl-1-(4-methoxy-2-butyl)-2-methylindole] | 0.25 (≈ 0.778 µM) | 100 | 100 | 100 | 100 | – |
| COCC(C)n1c(C)c(C(=O)c2ccccc2)c2cc(OC)ccc21 (stereo not shown) [(318), 3-Benzoyl-5-methoxy-1-(1-methoxy-2-propyl)-2-methylindole] | 0.75 (≈ 2.22 µM) | 100 | 14 | 97.7 | 0.5 | – |
| CCC(CO)n1c(C)c(C(=O)c2ccccc2)c2ccccc21 (stereo not shown) [(101), 3-Benzoyl-1-(1-hydroxy-2-butyl)-2-methylindole] | 0.1 (≈ 0.325 µM) | 99 | 99 | 100 | 100 | – |
| CCSCCC(C)n1c(C)c(C(=O)c2ccccc2)c2ccccc21 (stereo not shown) [(409), 3-Benzoyl-1-(4-ethylthio-2-butyl)-2-methylindole] | 0.25 (≈ 0.711 µM) | 100 | 48.8 | 100 | 100 | – |
| Cc1c(C(=O)c2ccccc2)c2ccccc2n1[C@H](C)CO [(135), 3-Benzoyl-1-[1-hydroxy-2(R)-propyl]-2-methylindole] | 0.025 (≈ 0.0852 µM) | – | – | – | – | – |
| COC[C@H](C)n1c(C)c(C(=O)c2ccccc2)c2ccccc21 [(347), 3-benzoyl-1-[1-methoxy-2(S)-propyl)-2-methylindole] | 0.075 (≈ 0.244 µM) | – | – | – | – | – |
| CCSCC(CC)n1c(C)c(C(=O)c2ccccc2)c2ccccc21 (stereo not shown) [(417), 3-Benzoyl-1-(1-ethylthio-2-butyl)-2-methylindole] | – | 100 | 37 | 100 | 100 | – |
| CCOCCC(C)n1c(C)c(C(=O)c2ccccc2)c2ccccc21 (stereo not shown) [(307), 3-Benzoyl-1-(4-ethoxy-2-butyl)-2-methylindole] | 0.25 (≈ 0.745 µM) | 100 | 100 | 98.3 | 100 | – |
| CCC(C)n1c(C)c(C(=O)c2ccccc2)c2ccccc21 (stereo not shown) [(701), 3-Benzoyl-1-(2-butyl)-2-methylindole] | – | 100 | 100 | – | – | – |
| CC(=O)OCC(C)n1c(C)c(C(=O)c2ccccc2)c2ccccc21 (stereo not shown) [(200), 1-(1-Acetoxy-2-propyl)-3-benzoyl-2-methylindole] | 0.075 (≈ 0.224 µM) | – | – | – | – | inhibition at 1 mg/kg (platelet aggregation [2]; [5]): 90%; inhibition at 1 mg/kg (platelet aggregation [2]; [6]): 91.8% |
| CCC(COC)n1c(C)c(C(=O)c2ccccc2)c2ccccc21 (stereo not shown) [(311), 3-Benzoyl-1-(1-methoxy-2-butyl)-2-methylindole] | 0.25 (≈ 0.778 µM) | 68.8 | 100 | 100 | 81.1 | – |
| Cc1c(C(=O)c2ccccc2)c2ccccc2n1C(C)C[S+]([O-])c1ccccc1 (stereo not shown) [(501), 1-(1-Benzenesulfinyl-2-propyl)-3-benzoyl-2-methylindole] | – | 100 | 100 | 100 | 100 | – |
| CCSCC(C)n1c(C)c(C(=O)c2ccccc2)c2ccccc21 (stereo not shown) [(400), 3-Benzoyl-1-(1-ethylthio-2-propyl)-2-methylindole] | 0.5 (≈ 1.48 µM) | 100 | 67.4 | 100 | 100 | – |
| COc1ccc2c(c1)c(C(=O)c1ccccc1)c(C)n2C(C)CO (stereo not shown) [(116), 3-benzoyl-1-(1-hydroxy-2-propyl)-5-methoxy-2-methylindole] | 0.5 (≈ 1.55 µM) | 100 | 0.7 | 100 | 0 | – |
| CC(=O)OCCC(C)n1c(C)c(C(=O)c2ccccc2)c2ccccc21 (stereo not shown) [(201), 1-(4-acetoxy-2-butyl)-3-benzoyl-2-methylindole] | 0.075 (≈ 0.215 µM) | 100 | 100 | 100 | 100 | – |
| Cc1c(C(=O)c2ccccc2)c2ccccc2n1C(C)CSc1ccccn1 (stereo not shown) [(405), 3-Benzoyl-2 methyl-1-[1-(2-pyridylthio)-2-propyl]indole] | 0.5 (≈ 1.29 µM) | 100 | 100 | 100 | 100 | – |
| Cc1[nH]c2ccccc2c1C(=O)c1ccccc1 [Comparison 2, reference compound] | 5 (≈ 21.3 µM) | – | – | – | – | – |
| COC[C@@H](C)n1c(C)c(C(=O)c2ccccc2)c2ccccc21 [(346), 3-Benzoyl-1-[1-methoxy-2(R)-propyl]-2-methylindole] | 0.05 (≈ 0.163 µM) | – | – | – | – | – |
| Cc1c(C(=O)c2ccccc2)c2ccccc2n1C(C)CCS (stereo not shown) [(423), 3-Benzoyl-1-(4-mercapto-2-butyl)-2-methylindole] | – | 100 | 100 | 100 | 100 | – |
| Cc1c(C(=O)c2ccccc2)c2ccccc2n1C(C)CCSc1ccccn1 (stereo not drawn) [(414), 3-Benzoyl-2-methyl-l-(4-(2-pyridylthio)-2-butyl]indole] | – | 100 | 100 | – | – | – |
| COCCn1c(C)c(C(=O)c2ccccc2)c2ccccc21 [Comparison 4, reference compound] | – | 45.5 | 7.1 | 38 | 7.6 | – |
| COCC(C)n1c(C)c(C(=O)c2cccs2)c2ccccc21 (stereo not shown) [(315), 1-(1-Methoxy-2-propyl)-2-methyl-3-thenoylindole] | – | – | – | – | – | IC50 (platelet aggregation [1]): 0.01 to 0.1 µg/mL |
| CSCC(C)n1c(C)c(C(=O)c2ccccc2)c2ccccc21 (stereo not shown) [(402), 3-Benzoyl-2-methyl-1-(1-methylthio-2-propyl)-indole] | 0.075 (≈ 0.232 µM) | – | – | – | – | – |
| Cc1c(C(=O)c2ccccc2)c2ccccc2n1[C@@H](C)CO [(136), 3-Benzoyl-1-(1-hydroxy-2(S)-propyl]-2-methylindole] | 0.05 (≈ 0.17 µM) | – | – | – | – | – |
| Cc1[nH]c2ccccc2c1C(=O)c1ccc(Cl)cc1 [Comparison 6, reference compound] | – | 12.3 | 6 | – | – | inhibition at 10 mg/kg (platelet aggregation [3]; oral dosage 10 mg/kg, 5 µg/ml collagen floating solution, blood taken 1 hour after administration, read-out: Rate of inhibition of platelet aggregation, Collagen, After 1 hour): 36%; inhibition at 10 mg/kg (platelet aggregation [3]; oral dosage 10 mg/kg, 5 µg/ml collagen floating solution, blood taken 4 hours after administration, read-out: Rate of inhibition of platelet aggregation, Collagen, After 4 hours): 28.9% |
